Patent US11484562B2, “Composition for preventing or treating obesity comprising natural mixture extracts” (KOREA INSTITUTE OF ORIENTAL MEDICINE, priority 2018, dated 2022)

Legend:
[1] = people taking Reductil, background statement; cited from earlier work
pancreatic lipase = molecular target: T1, pancreatic lipase (Homo sapiens, UniProt P16233); conditions: background statement; cited from earlier work
T1 sequence (P16233 17-465): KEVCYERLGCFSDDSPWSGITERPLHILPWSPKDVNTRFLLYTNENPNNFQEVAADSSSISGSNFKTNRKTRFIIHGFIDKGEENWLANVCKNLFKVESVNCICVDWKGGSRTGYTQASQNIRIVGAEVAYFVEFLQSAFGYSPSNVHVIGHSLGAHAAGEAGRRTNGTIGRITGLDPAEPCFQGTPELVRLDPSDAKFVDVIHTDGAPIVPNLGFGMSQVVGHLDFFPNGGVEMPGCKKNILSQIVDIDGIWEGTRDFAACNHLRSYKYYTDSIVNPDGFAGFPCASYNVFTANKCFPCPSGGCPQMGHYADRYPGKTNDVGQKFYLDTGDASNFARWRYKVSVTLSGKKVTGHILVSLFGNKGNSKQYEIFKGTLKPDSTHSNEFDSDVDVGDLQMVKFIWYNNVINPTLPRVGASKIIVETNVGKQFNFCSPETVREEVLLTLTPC

high-fat diet-fed mice = experiment: Anti-obesity effect by repeated administration for 8 weeks in obesity model induced by high-fat diet; type: in vivo, C57BL/6 mice; conditions: HFD mice
Description: 6-week-old male C57BL/6 mice (Orient Bio) were used after being acclimated for one week. A high-fat diet was fed to induce obesity. D12451 (Calorie composition: 45% of fats, 35% of carbohydrates, and 20% of proteins, Research Diets, Inc.) was used as the high-fat diet, and Purina Rodent Chow was used as a normal diet. The mice were allowed to freely access feed and drinking water. The CMO1 mixture was administered together with the […] feed at a weight ratio of 0.1% (w/w) and 0.25% (w/w). Xenical™ (orlistat, Sigma, MO, USA), as a control drug, was administered together with the […] feed in a weight ratio of 0.1% (w/w). A daily dose of the CMO1 mixture, calculated based on an average daily feed intake, was 70 mg/kg/day in the case of 0.1%, and 190 mg/kg/day in the case of 0.25%, and a daily dose of Xenical™ was […]. Body weights and feed intakes were measured every week, and organs were excised and weighed in autopsy after 8 weeks and then stored at −80° C. In autopsy, blood was collected from the abdominal vein after laparotomy under deep anesthesia. The blood was stored in a cryogenic refrigerator according to analysis conditions and thawed immediately before initiating the experiment. Levels of total cholesterol, triglyceride, HDL cholesterol, and LDL cholesterol were analyzed using an automatic blood biochemistry analyzer (Hitachi, Japan). In order to analyze size changes in adipocytes and hepatocytes caused by accumulation of fats, the organ was immobilized with 10% neutralized formalin (Microme, USA) for 24 hours, embedded into paraffin blocks via a general tissue treatment process, and sectioned into 4 μm slices. The slices were hydrated and stained with hematoxylin and eosin (H&E). The stained tissue was observed using an optical microscope (BX51, Olympus, Japan) to measure sizes of cells. […] All measurement values of each experiment are expressed as mean±standard error. […]

[2] = during 8-week administration in feed

SMILES | higher number of cardiovascular events versus a control group [1] | inhibition of absorption of dietary fat (pancreatic lipase) | hardness of excrement (high-fat diet-fed mice; 8-week administration in feed) | appearance of hair during administration (high-fat diet-fed mice; [2]) | diarrhea (side effect) (high-fat diet-fed mice; [2])
CC(C)CC(N(C)C)C1(c2ccc(Cl)cc2)CCC1 (centres unmarked) [Reductil, Sibutramine] | 16% |  |  |  | 
CCCCCCCCCCC[C@@H](C[C@@H]1OC(=O)[C@H]1CCCCCC)OC(=O)[C@H](CC(C)C)NC=O [Xenical, Orlistat] |  | approximately 30% | very soft excrement | oily and lumpy hair | serious diarrhea
